One series concerns the target T1, p38 MAP kinase (Homo sapiens, UniProt Q16539).
T1 construct: made in house; host or cells: E. coli (co-expressed with SEK-1 and MEKK to phosphorylate it)
The experiment in a line: in vitro p38 MAP kinase inhibition assay (transfer of γ-33P from ATP to Myelin Basic Protein). The series is classed as biochemical. Particulars: phosphorylated recombinant p38 MAP kinase, MBP substrate, γ-33P-ATP; read-out: p-38 inhibitory activity, IC50. As for the experimental part: This example illustrates an in vitro assay procedure for determining p38 MAP kinase inhibition by a compound of Formula I.
The p-38 MAP kinase inhibitory activity of compounds of this invention in vitro is determined by measuring the transfer of the γ-phosphate from γ-^33P-ATP by p-38 kinase to Myelin Basic Protein (MBP), using the a minor modification of the method described in Ahn, N. G.; et al. J. Biol. Chem. Vol. 266(7), 4220-4227, (1991).
The phosphorylated form of the recombinant p38 MAP kinase was expressed with SEK-1 and MEKK in E. Coli and then purified by affinity chromatography using a Nickel column.
The phosphorylated p38 MAP kinase is diluted in kinase buffer (20 mM 3-(N-morpholino)propanesulfonic acid, pH 7.2, 25 mM β-glycerol phosphate, 5 mM ethylene glycol-bis(beta-aminoethyl ether)-N,N,N′,N′-tetraacetic acid, 1 mM sodium vanadate, 1 mM dithiothreitol, 40 mM magnesium chloride). Test compound dissolved in DMSO or only DMSO (control) is added and the samples are incubated for 10 min at 30° C. The kinase reaction is initiated by the addition of a substrate cocktail containing MBP and γ-^33P-ATP. […] The phosphorylated MBP is then separated from the residual γ-^33P-ATP using a phosphocellulose membrane (Millipore, Bedford, Mass.) and quantitated using a scintillation counter (Packard, Meriden, Conn.). […]

The next series addresses T2, FGFR.
T2 construct: fused on or other part: GST tag
The experiment in a line: in vitro FGFR kinase inhibition HTRF assay. The series is classed as biochemical. Particulars: recombinant GST-tagged FGFR, 10 μM ATP, 37° C. 30 minutes. As for the experimental part:
To determine inhibition of FGFR activity, kinase assays were conducted using an HTRF (Homogeneous Time Resolved Fluorescence) assay. This assay is described in A. J. Kolb et. al., Drug Discovery Today, 1998, 3(7), p 333.
Prior to kinase reaction, recombinant GST-tagged FGFR enzyme was activated at room temperature for 1 hour in the following activation buffer: 100 mM HEPES, pH 7.4, 50 mM NaCl, 20 mM MgCl2, and 4 mM ATP.
Kinase activity assays were performed in 96-well polypropylene plates (Falcon) with a total volume of 90 μL in each well. Each well contained 1 μM substrate (Biotin-EEEEYFELV), 1.5 μM activated FGFR, and a test compound with one of 8 assay concentrations ranging from 100 μM to […] (1:5 serial dilution). The kinase activity assay was done in the presence of 100 mM HEPES, pH 7.4, 1 mM DTT, 0.1 mM Na2VO4, 0.4 mM MgCl2, 0.4 mM MnCl2, 50 mM NaCl (from KDR stock solution), 1% DMSO (from compound), 10 μM ATP (Km=8.5 μM for FGFR) and 0.02% BSA. The reaction was incubated at 37° C. for 30 minutes. To stop the FGFR reaction, 72 μL of reaction mixture was transferred into a STOP plate containing 18 μL of revelation buffer (20 mM EDTA, 50 mM HEPES, pH 7.4, 0.02% BSA, 10 nM Eu-labelled anti-p Y antibody (final conc. 2 nM), and 100 nM streptavidin (final conc. 20 nM)). After mixing, 35 μL of solution was transferred into duplicate wells of a 384-well black plate (Costar), and read at 615/665 nm on a Wallac Victor 5 reader.
Compound IC50 values were determined from duplicate sets of data, and calculated by using Excel and fitting data to equation Y=[(a−b)/{1+(X/c)^d]+b, where a and b are enzyme activity in the presence of no test inhibitor compound and an infinite amount of inhibitor test compound, respectively, c is the IC50 and d is the hill constant of the compound response. The IC50 value is the concentration of test compound that reduces by 50% the enzyme activity under the test conditions described. Compounds of the invention were active in the assay. Selected IC50 values are shown below.

pIC50: −log10 of the molar value.

T1 sequence (Q16539 whole entry): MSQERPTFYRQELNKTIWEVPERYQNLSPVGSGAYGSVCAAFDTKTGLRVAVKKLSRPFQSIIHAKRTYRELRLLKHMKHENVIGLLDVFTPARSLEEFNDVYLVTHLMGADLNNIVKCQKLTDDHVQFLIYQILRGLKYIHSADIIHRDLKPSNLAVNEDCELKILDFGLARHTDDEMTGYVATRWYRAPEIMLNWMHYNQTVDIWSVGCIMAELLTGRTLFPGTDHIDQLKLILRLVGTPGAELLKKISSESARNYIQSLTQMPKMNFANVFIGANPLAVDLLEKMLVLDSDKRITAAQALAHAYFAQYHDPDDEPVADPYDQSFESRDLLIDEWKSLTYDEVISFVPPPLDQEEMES

In turn, `CN1N=C(c2ccccc2Cl)Oc2cnc(NC3CCOCC3)nc21` [compound 1, 2-methyl-4-(2-chlorophenyl)-6-(tetrahydropyranyl-4-amino)-4H-1,3,4-pyrimido[4,5-e]oxadiazine] registered a melting point of 171 to 172.1 °C. In addition, the pIC50 at p38 MAP kinase was 6.72.

Consider `CN1N=C(c2ccccc2F)Oc2cnc(NC3CCOCC3)nc21` [compound 2], for which the pIC50 on p38 MAP kinase was 5.66.

In the case of `CN1N=C(c2c(Cl)cccc2Cl)Oc2cnc(Nc3ccccc3)nc21` [compound 5, [3-(2,6-dichlorophenyl)-1-methyl-1H-pyrimido[4,5-e][1,3,4]oxadiazin-7-yl]-phenyl-amine], the pIC50 at FGFR was 6.74.

Turning to `CN1N=C(c2c(Cl)cccc2Cl)Oc2cnc(Nc3ccc(F)cc3)nc21` [compound 6, [3-(2,6-Dichloro-phenyl)-1-methyl-1H-pyrimido[4,5-e][1,3,4]oxadiazin-7-yl]-(4-fluoro-phenyl)-amine], the pIC50 at FGFR was 6.62.

In the case of `CN1N=C(c2c(Cl)cccc2Cl)Oc2cnc(Nc3cccc(Cl)c3)nc21` [compound 7, [3-(2,6-Dichloro-phenyl)-1-methyl-1H-pyrimido[4,5-e][1,3,4]oxadiazin-7-yl]-(3-chloro-phenyl)-amine], at FGFR, the pIC50 is 6.49.

In the case of `CN1N=C(c2c(Cl)cccc2Cl)Oc2cnc(Nc3ccc(N4CCOCC4)cc3)nc21` [compound 29, [3-(2,6-dichlorophenyl)-1-methyl-1H-pyrimido[4,5-e][1,3,4]oxadiazin-7-yl]-(4-morpholin-4-yl-phenyl)amine], the melting point is 192.2 to 200.3 °C.
